We go through eleven compounds from ChEMBL document CHEMBL1921768, “Identification of novel CYP2A6 inhibitors by virtual screening” (Bioorg Med Chem, 2011).

Holding throughout (assay type): ADME, Microsome
Data set [1] deals with T1, Cytochrome P450 2A6 (Homo sapiens, UniProt P11509).
T1 sequence (P11509 whole entry): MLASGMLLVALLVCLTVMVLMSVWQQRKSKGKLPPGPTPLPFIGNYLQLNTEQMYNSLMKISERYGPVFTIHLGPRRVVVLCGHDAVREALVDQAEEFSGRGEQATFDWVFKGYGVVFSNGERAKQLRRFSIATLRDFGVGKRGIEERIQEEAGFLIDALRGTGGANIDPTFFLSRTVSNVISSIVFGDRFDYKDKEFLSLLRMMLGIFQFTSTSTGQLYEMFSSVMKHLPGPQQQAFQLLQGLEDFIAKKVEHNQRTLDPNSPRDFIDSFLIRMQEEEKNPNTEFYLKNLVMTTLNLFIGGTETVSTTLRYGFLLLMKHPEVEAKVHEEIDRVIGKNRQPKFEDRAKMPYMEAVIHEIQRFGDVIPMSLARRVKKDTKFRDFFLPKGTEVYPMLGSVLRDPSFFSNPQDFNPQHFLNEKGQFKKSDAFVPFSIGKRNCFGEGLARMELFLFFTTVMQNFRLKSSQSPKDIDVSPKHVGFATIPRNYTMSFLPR
The experiment in a line: Inhibition of CYP2A6 in human liver microsomes assessed as inhibition of coumarin 7-hydroxylation after 10 mins by plate reader. (Liver microsomes are vesicles of endoplasmic reticulum, rich in cytochrome P450 enzymes.)

Data set [2] deals with T1, Cytochrome P450 2A6. The experiment in a line: Inhibition of CYP2A6 in human liver microsomes assessed as inhibition of coumarin 7-hydroxylation after 30 mins preincubation by plate reader.
The target in data set [3] is T1, Cytochrome P450 2A6. The experiment in a line: Irreversible inhibition of CYP2A6 in human liver microsomes assessed as coumarin 7-hydroxylation activity in presence of NADPH. The settings on record: TDE = time-dependent effect.
In data set [4] the target is T1, Cytochrome P450 2A6. The experiment in a line: Irreversible inhibition of CYP2A6 in human liver microsomes assessed as coumarin 7-hydroxylation activity after 1 to 5 mins in presence of NADPH.
The target of data set [5] is T2, CYP2A6 (Homo sapiens, UniProt P11509).
T2 sequence (P11509 whole entry): T1 sequence (P11509 whole entry)
The experiment in a line: (§1) Irreversible inhibition of CYP2A6 in human liver microsomes assessed as coumarin 7-hydroxylation activity by double reciprocal plot analysis in presence of NADPH. The following applies: human, liver microsomes, probe coumarin (7-hydroxylation).

Data set [6] deals with T1, Cytochrome P450 2A6. The data set is described as §1.

By IC50 is commonly meant the midpoint of a concentration-inhibition curve. `NCc1cc2ccccc2s1`: the IC50 in data set [1] amounted to 100 nM.

For the compound `N#CCSc1nnc(N)s1`, the IC50 in data set [1] was above 100000 nM.

In the case of `O=Cc1ccc(-c2cccs2)cc1`, the IC50 in data set [1] was above 100000 nM.

As for `NCc1csc2ccccc12`, the IC50 in data set [1] turned out to be 1500 nM; in data set [2] it was 200 nM.

Regarding `NCc1ccc2sccc2c1`, the IC50 turned out to be 1700 nM in data set [1] and 600 nM in data set [2].

Regarding `Brc1cccc2[nH]ccc12`, the IC50 in data set [1] was above 100000 nM.

In the case of `N#Cc1ccc(C=O)cc1`, in data set [1], the IC50 was above 100000 nM.

In the case of `N#Cc1c(Cl)cccc1OCC(F)(F)F`, the IC50 in data set [1] is above 100000 nM.

Turning to `O=C(O)c1cc2ccccc2s1`, the IC50 in data set [1] is above 100000 nM.

In the case of `Brc1ccc2[nH]ccc2c1`, the IC50 in data set [1] is 6400 nM.

Usually kinact stands for the maximal first-order rate at which the target is inactivated. In the case of `O=Cc1csc2ccccc12`, the IC50 in data set [1] was found to be 1600 nM; in data set [2], 50 nM. Further, the “inhibition (INH)” value was “tde” in data set [3] and “Dose-dependent effect” in data set [4]. Further, the kinact in data set [5] is 0.006 s⁻¹. Also, the Ki in data set [6] worked out at 29000 nM.
